PMC8551122, “Characterization and Modeling of Thermostable GH50 Agarases from Microbulbifer elongatus PORT2” (Marine Biotechnology (New York, N.y.), 2021)

Target: T1, AgaB50 (Microbulbifer elongatus, UniProt A0A516UX44)
T1 construct: full-length precursor 769 aa; 26 N-terminal residues (SPII lipoprotein signal peptide) deleted; N-terminal His6 tag; E. coli BL21 (DE3), pFO4; about 82 kDa
T1 sequence (A0A516UX44 1-743): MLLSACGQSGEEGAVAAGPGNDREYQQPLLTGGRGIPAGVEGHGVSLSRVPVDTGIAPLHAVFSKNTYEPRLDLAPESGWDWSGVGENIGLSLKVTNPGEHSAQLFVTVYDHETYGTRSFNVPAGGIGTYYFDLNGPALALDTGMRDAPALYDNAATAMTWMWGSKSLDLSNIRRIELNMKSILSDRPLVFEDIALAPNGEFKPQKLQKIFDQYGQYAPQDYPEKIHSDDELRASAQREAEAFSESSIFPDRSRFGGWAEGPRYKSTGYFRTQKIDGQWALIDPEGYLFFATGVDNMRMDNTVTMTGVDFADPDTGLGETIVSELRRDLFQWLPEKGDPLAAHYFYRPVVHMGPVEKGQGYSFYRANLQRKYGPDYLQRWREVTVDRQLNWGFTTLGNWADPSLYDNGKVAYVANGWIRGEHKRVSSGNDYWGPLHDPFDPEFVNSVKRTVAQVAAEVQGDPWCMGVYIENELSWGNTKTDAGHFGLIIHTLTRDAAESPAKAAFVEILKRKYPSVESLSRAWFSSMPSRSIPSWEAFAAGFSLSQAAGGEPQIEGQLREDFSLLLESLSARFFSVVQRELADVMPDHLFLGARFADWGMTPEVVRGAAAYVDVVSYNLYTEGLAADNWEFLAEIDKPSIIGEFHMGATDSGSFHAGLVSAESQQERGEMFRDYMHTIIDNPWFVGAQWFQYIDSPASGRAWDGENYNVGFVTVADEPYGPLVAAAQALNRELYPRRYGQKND
Test: HPLC-RID product analysis, end point
Format: biochemical
Settings: […] in ultrapure water, […] °C, overnight

## OC[C@H]1O[C@@H](O[C@H]2[C@H]3OC[C@@H]2O[C@@H](O[C@H]2[C@@H](O)[C@@H](CO)O[C@@H](O[C@H]4[C@H]5OC[C@@H]4O[C@@H](O[C@H]4[C@@H](O)[C@@H](CO)O[C@@H](O[C@H]6[C@H]7OC[C@@H]6O[C@@H](O[C@H]6[C@@H](O)[C@@H](CO)OC(O)[C@@H]6O)[C@H]7O)[C@@H]4O)[C@H]5O)[C@@H]2O)[C@H]3O)[C@H](O)[C@@H](O[C@@H]2O[C@H]3CO[C@@H]([C@@H]2O)[C@@H]3O)[C@H]1O (stereo partly shown) [NA8, neoagarooctaose]
  HPLC-RID product analysis, end point: AgaB50 was able to convert larger NAOS such as NA8, NA6, and NA4
